Laboratory results as given in patent US11013732B2, “Use of macroazapyridinophanes metal complexes in the treatment of diseases” (BIONOS BIOTECH, S.L, priority 2017, dated 2021).

System: Caenorhabditis elegans expressing 110Q::TdTomato in mechanosensory neurons
Assay: Gentle touch sensitivity in C. elegans' Huntington's disease model expressing 110Q::TdTomato
Assay type: in vivo
Conditions: 110Q::TdTomato animals without metal complex (II)
Procedure: The study was conducted to assess whether administration of metal complex (II) improves the neurosensitivity (gentle touch sensitivity) in Caenorhabditis elegans' (C. elegans) Huntington's disease model.
The initial and most generally used method to test for gentle touch sensitivity is to stroke animals with an eyebrow hair that has been glued to the end of a toothpick (FIG. 4).
C. elegans expressing 110CAG fused in frame with TdTomato in mechanosensory neurons aggregate and induced neural impairment were used. […] The tissue in light grey is the marker for transgenesis (i.e. green fluorescent protein (GFP) expressed in the pharynx).
The test was carried out using non-treated animals (expressing 110Q::TdTomato and thus showing neuronal impairment) as a control C, and animals treated with Metformin at 2 mM were used as a positive control. Each test was carried out treating animals (expressing 110Q::TdTomato showing neuronal impairment) with 5, 10 and 20 μM concentrations of metal complex (II), using non-treated animals as a control and animals treated with Metformin at a concentration of 2 mM as a positive control.
Finally, it was tested whether the rescue of the neuronal impairment due to 110Q::TdTomato expression shown with the treatment of metal complex (II) is produced by activation of autophagy. […]

`CCN(CC)CCCC(C)Nc1ccnc2cc(Cl)ccc12` (stereo not shown) [Chloroquine, reference compound] was tested, and the “% of individuals showing touch response, chloroquine alone” value was “does not induce additional touch response impairment”.
